Consider 6 compounds from US9205128B2, “Method for inhibiting HIV replication in mammal and human cells” (priority 2010, dated 2015).

Series [1] relates to HIV-1. In words: Total virus challenge of MT4 cells, p24 antigen ELISA. The series is classed as cell-based. The settings on record: HIV-1 Bru, m.o.i. 0.01, 5-day incubation. A general note: In an ELISA, binding on a coated surface is turned into a signal by an enzyme label.
Series [2] has as its system HIV-1. To be noted: PBMCs of infected individuals treated ex vivo; 15d-PGJ2 at 5 μM; vs untreated cells.
Experimental: PBMCs were isolated from whole blood of HIV-1 infected individuals by Ficoll density gradients. […] Replication was evaluated by determining the p24 antigen concentration on culture supernatants by the ELISA method.
For series [3], the system named is vimentin protein. To be noted: Stamatakis et al. 2006; cited from earlier work.
For series [4], the system named is HIV-1. To be noted: 150 mg per day, 6 months follow-up; two of eight patients (both formulations pooled).
For series [5], the system named is cytoskeletal intermediate filaments (IFs). In words: IFs structural analysis by transmission electron microscopy. Format: cell-based, human. The settings on record: treated patients (two with SEQ ID No. 1, three with SEQ ID No. 2). The protocol: Firstly, MT4vim(s), MT4K-10(s) and MT4 cells were fixed in 3.2% glutaraldehyde for 1 h at 4° C. and then fixed in 2% osmium tetroxide for 1 h at 4° C. They were subsequently washed with 0.1 M phosphate buffered saline (PBS), pH 7.2, and dehydrated at increasing ethanol concentrations (30, 50, 70 and 100%) for 10 min each at 4° C. Inclusion was carried out and ultrathin 40-50 nm-width sections were taken in an ultramicrotome (NOVA, LKB), which were placed on 400-orifices nickel trays. Once the ultrathin cuts were taken and placed on the trays, they were contrasted with saturated uranyl acetate and lead citrate, and further examined under a JEOL JEM 2000 EX (JEOL) microscope. Five microphotographs were analyzed at different magnifications. MT4 cell intact IFs are shown in FIG. 5A, meanwhile these structures appeared shortened in MT4vim(s) MT4K-10(s) cells (FIGS. 5B and C, respectively). […] Inhibition of the viral replication was observed under these conditions. Vimentin or keratin-10 proteins were identified at IFs by immunomicroscopy.
IFs structure was analyzed by transmission electron microscopy, following the methodology described in Example 3.
IFs structures were analyzed by transmission electron microscopy, following the methodology described in Example 3. […]

Series [6] relates to HIV-2 CBL-20 strain. Description: HIV-2 replication in pre-stimulated PBMCs, p24. The series is classed as cell-based. The settings on record: 7 days. The method, then:
PBMCs were isolated from whole blood of healthy individuals by using Ficoll density gradients. […] Cells were subsequently maintained in PHA-free medium and seeded at 150 000 cells per well in 96-well plates. After 24 h, peptides were added at different concentrations and the cultures were infected with the CBL-20 HIV-2 strain. The cultures were kept for 7 days, being changed every 3 days the medium and the peptides added. Cultures were harvested and supernatants collected to evaluate the presence of the p24 viral protein.

The test system of series [7] is MT4 cells. In words: Cellular penetration of peptides by flow cytometry. The series is classed as cell-based, human. The settings on record: 5-40 μM, 15, 30 and 60 min. The protocol:
HeLa CD4+ cells were seeded in RPMI medium supplemented at 10% FBS and incubated until reaching 60% confluence of the monolayer. MT4 cells were seeded at 50 000 cells per well in RPMI medium at 10% FBS. Peptides identified as SEQ ID No. 1 and SEQ ID No. 3 were resuspended in injection water and evaluated at 5, 10, and 40 μM concentrations. Peptides were incubated for […] at 37° C. under a 5% CO2 atmosphere, and penetration was evaluated after 15, 30 and 60 min. After each period of time, cells were harvested and immediately analyzed by flow cytometry. Three replicates were analyzed per experimental variant.
A general note: Flow cytometry measures light scatter and fluorescence of single cells or particles in a stream.

Series [8] concerns the target T1, vimentin (Homo sapiens, UniProt P08670).
T1 construct: these proteins are endogenous cellular proteins rather than viral; endogenous in cells; host or cells: MT4 cell line (untransduced, shRNA-transduced MT4vim(s), or peptide-treated)
In words: Western blot of vimentin in MT4 cells incubated with peptides. Format: cell-based. To be noted: 50 μM peptide, 24 h. The method, then: The MT4 cell line was incubated at 50 μM of each peptide for 24 h. The vimentin protein was detected by the western blot technique. Cellular extracts were resuspended in 1% sodium dodecyl sulphate (SDS) and applied in a 10% polyacrylamide gel, being further transferred to a Hybond-P […] membrane. For immunoidentification purposes, anti-vimentin and anti-β actin (as control) antibodies were used. An anti-mouse IgG antibody-peroxidase conjugate was used as secondary antibody. The activity of the peroxidase enzyme was visualized by using diaminobenzidine in the presence of hydrogen peroxide and PBS.

No end group written: not given here.

T1 sequence (P08670 whole entry): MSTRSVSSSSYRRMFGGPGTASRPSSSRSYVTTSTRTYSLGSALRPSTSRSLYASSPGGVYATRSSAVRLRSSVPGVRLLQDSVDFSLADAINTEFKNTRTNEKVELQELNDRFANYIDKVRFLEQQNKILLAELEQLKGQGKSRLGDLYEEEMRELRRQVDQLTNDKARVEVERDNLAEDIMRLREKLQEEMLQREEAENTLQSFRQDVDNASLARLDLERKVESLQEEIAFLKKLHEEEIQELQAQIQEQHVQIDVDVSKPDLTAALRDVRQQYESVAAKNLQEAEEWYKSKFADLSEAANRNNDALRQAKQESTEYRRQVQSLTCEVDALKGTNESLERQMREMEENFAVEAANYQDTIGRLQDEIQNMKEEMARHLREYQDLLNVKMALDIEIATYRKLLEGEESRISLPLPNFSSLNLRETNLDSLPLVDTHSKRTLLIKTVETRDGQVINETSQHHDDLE

In the case of `CCCCC/C=C/C=C1/C(=O)C=C[C@@H]1C/C=C\CCCC(=O)O` [Peptide 15d-PGJ2, prostaglandin cyclopentane 15 deoxy-Δ-^12,14-PGJ2], the HIV replication entry in series [1] was “inhibits the HIV replication in vitro”. Besides, the “% of HIV-1 inhibition” value in series [2] worked out at 80.1%. In series [3], the binding to vimentin result was “binds to the vimentin protein”.
Turning to DMEIATYRTLLEGEESRM [Peptide 2], in series [4], the “viral load after treatment” value is recorded as “undetectable”. Moreover, the IFs structure result in series [5] is given as “shortened”. In addition, in series [6], the HIV-2 replication entry is recorded as “inhibited HIV-2 replication in a dose-dependent manner”. For the same compound, the “% of HIV-1 inhibition” value in series [2] is 81.1%.
As for KVELQELNDRFANYIDKVRF [Peptide 3], the “% of HIV-1 inhibition” value in series [2] was 85.3%.
As for RVTQMNLNDRLASLYDKV [Peptide 1], the “% of HIV-1 inhibition” value in series [2] amounted to 89.3%. The penetration into cells result in series [7] is “able to penetrate by their own into the MT4 cells”.
For “RVTQMNLNDRLASLYDKVHYRIKPTFRRLKWKYKGKFW [Peptide 9]”, the vimentin band intensity result in series [8] is recorded as “decreased intensity”. The HIV-2 replication entry in series [6] is “inhibited HIV-2 replication in a dose-dependent manner”. In addition, the “% of HIV-1 inhibition” value in series [2] turned out to be 81.3%.
“RVTQMNLNDRLASLYDKVRALEESNYELEGKIKEW [Peptide 8]”: the vimentin band intensity entry in series [8] is recorded as “decreased intensity”. The HIV-2 replication result in series [6] was “inhibited HIV-2 replication in a dose-dependent manner”. Also, in series [2], the “% of HIV-1 inhibition” value turned out to be 86.7%.
